Key:
[1] = system: secreted Aβ40 peptide; test: Secreted β-amyloid 40 (Aβ40) peptide assay in APP overexpressing SH-SY5Y-APP cells; assay type: cell-based; settings: Homo sapiens, overnight (16-18 hours), supernatant
Protocol: SH-SY5Y cells were infected with lentivirus to overexpress amyloid (A4) beta precursor protein (APP), hereafter referred to as the SH-SY5Y-APP cells.
SH-SY5Y cells were seeded onto 6-well plates at 5.0×10
[formula] and incubated overnight at 37° C.
Polybrene added for permeability (H9268, Sigma). 24 hours post-transfection, the entire volume from each well was replaced with regular SH-SY5Y medium.
Puromycin-resistant cell were then expanded, harvested and banked. APP-overexpression was controlled by immunoblotting for total APP and Myc-DDK.
The cell assay procedure start 18 h prior to treatment, as SH-SY5Y-APP cells were seeded onto 96-well plates at 2.0×10^4
At this time, designated wells were seeded with SH-SY5Y cells that were seeded and treated with puromycin at 10
Cells were exposed overnight (16-18 hours) in a 37° C. incubator before supernatant was harvested. […] The original plates with seeded cells were tested for cytotoxicity by measure of adenosine triphosphate (ATP) release by adding CellTiter-Glo® diluted 1:4 in distilled water (G7573, Promega) and transferring lysed cells to a completely black 96-well plate to be read with the Cytation3. Plates containing supernatant were spun down at 1200 g for 10 minutes to remove any cellular debris. […]

[2] = system: IL-6; test: IL-6 inhibition (HTRF) in LPS-stimulated human peripheral blood mononuclear cells; assay type: cell-based; settings: IL-6 in LPS-stimulated huPBMCs; for value in parentheses after >10 (% inhibition at top concentration): where EC50 >10 μM; for EC50: 22 hours, dose-response starting from 10 μM
Protocol: After 22 hour incubation, a mixture of ani-IL6XL665 and anti-IL-6 Cryptate diluted in reconstitution buffer (Catalog #62IL6PEC, Cisbio Inc., Bedford, Mass.) was added to each well. […] All samples were processed in duplicate. […] EC50 was determined using software generated by Dotmatics Limited (Windhill Bishops Stortford Herts, UK) using the Levenberg-Marquardt 4 parameter fitting procedure with finite different gradients.

[3] = system: primary human fibroblasts derived from IPF patients (LL29 cells); test: Fibrosis assay: αSMA staining in TGF-β1 treated LL29 fibroblasts; assay type: cell-based; settings: for EC50: LL29 fibroblasts treated with TGF-β1, 4 days, αSMA, dose-response 10 μM to […]
[4] = system: Wnt activity; test: Screening assay for Wnt activity (Sp5-Luc reporter gene assay in SW480 cells); assay type: cell-based, human; settings: 36 to 48 hours
Protocol: The screening assay for Wnt activity is described as follows.
Following incubation, 15 μl of BriteLite Plus luminescence reagent (Perkin Elmer) was added to each well of the 384-well assay plates. The plates were placed on an orbital shaker for 2 min and then luminescence was quantified using the Envision (Perkin Elmer) plate reader.

[5] = biological target: DYRK1A kinase (Homo sapiens (Human), UniProt Q13627); test: DYRK1A kinase activity assay (Ser/Thr 18 peptide Z-lyte, FRET); assay type: biochemical; settings: method calls the values IC50
[6] = biological target: GSK3β kinase (Homo sapiens (Human), UniProt P49841); test: GSK3β kinase activity assay (Ser/Thr 09 peptide Z-lyte, FRET); assay type: biochemical; settings: method calls the values IC50
Chain of GSK3β kinase (P49841 whole entry): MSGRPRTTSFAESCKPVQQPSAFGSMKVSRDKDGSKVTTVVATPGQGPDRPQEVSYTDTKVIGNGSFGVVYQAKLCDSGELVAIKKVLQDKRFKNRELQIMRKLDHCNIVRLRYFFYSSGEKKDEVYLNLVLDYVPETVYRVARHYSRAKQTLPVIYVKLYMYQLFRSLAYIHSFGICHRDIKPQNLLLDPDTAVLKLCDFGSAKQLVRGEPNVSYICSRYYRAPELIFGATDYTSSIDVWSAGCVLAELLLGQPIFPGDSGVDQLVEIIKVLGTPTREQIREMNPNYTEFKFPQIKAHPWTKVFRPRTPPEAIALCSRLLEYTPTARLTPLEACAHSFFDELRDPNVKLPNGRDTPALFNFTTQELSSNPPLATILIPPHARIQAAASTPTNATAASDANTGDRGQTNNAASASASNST

[7] = system: Tau phosphorylation at Ser396 (pSer396); test: Tau phosphorylation assay (pSer396 ELISA / western blot) in SH-SY5Y cells; assay type: cell-based, human; settings: overnight (16-18 h) exposure
Protocol: Two days before treatment, cells were seeded onto 96 well plates at 5×10^4 cells/well.
Wells were visually checked for cell death or change in morphology and supernatants were tested for cytotoxicity by measurement of lactate dehydrogenase release (LDH, CytoToxOne kit, Promega) if necessary.
Cells were lysed with RIPA buffer complemented with phosphatase and protease inhibitors then lysates were spun down at 12,000 g for 10 min to remove any cellular debris. Lysates are then either directly tested for pSer396 by ELISA (Life Technology, Kit KHB7031) or loaded on NuPage Bis-Tris gels for western blot analysis. Colorimetric detection of ELISA signal is performed by Cytation3 plate reader (Biotek) and the chemiluminescence signal for HRP-linked antibodies used in western blotting is detected using a Carestream Image Station. The same pSer396 antibody is used for detection of pTau in both assays.

[8] = system: SW480 colon carcinoma cells; test: Cell viability assay (CellTiter-Glo) in SW480 cells; assay type: cell-based, human; settings: four days incubation

Cn1cncc1-c1ccc2cnc(NC(=O)C3C(C)(C)C3(C)C)cc2c1 [Compound 269, 2,2,3,3-Tetramethyl-N-[6-(3-methylimidazol-4-yl)-3-isoquinolyl]cyclopropanecarboxamide]
IC50 [1]: > 10 µM

Cn1cc(-c2ccc3cnc(NC(=O)C4C(C)(C)C4(C)C)cc3c2)nn1 [Compound 277, 2,2,3,3-Tetramethyl-N-(6-(1-methyl-1H-1,2,3-triazol-4-yl)isoquinolin-3-yl) cyclopropane-1-carboxamide]
value in parentheses after >10 (% inhibition at top concentration) [2]: 4.0%

Cn1cc(-c2ccc3cnc(NC(=O)CN4C5CCC4COC5)cc3c2)cn1 [Compound 347, 2-(3-Oxa-8-azabicyclo[3.2.1]octan-8-yl)-N-(6-(1-methyl-1H-pyrazol-4-yl)isoquinolin-3-yl)acetamide]
value in parentheses after >10 (% inhibition at top concentration) [2]: 4.5%

Cn1cc(-c2ccc3cnc(NC(=O)CN4C5CCC4CC5)cc3c2)nn1 [Compound 513, 2-(7-Azabicyclo[2.2.1]heptan-7-yl)-N-(6-(1-methyl-1H-1,2,3-triazol-4-yl)isoquinolin-3-yl)acetamide]
value in parentheses after >10 (% inhibition at top concentration) [2]: 14.5%

Cc1nnc(-c2ccc3cnc(NC(=O)CN4C5CCC4CC5)cc3c2)s1 [Compound 959, 2-(7-Azabicyclo[2.2.1]heptan-7-yl)-N-(6-(5-methyl-1,3,4-thiadiazol-2-yl)isoquinolin-3-yl)acetamide]
value in parentheses after >10 (% inhibition at top concentration) [2]: 6.1%

Cc1nnc(-c2ccc3cnc(NC(=O)CN4C5CCC4COC5)cc3c2)s1 [Compound 962, 2-(3-Oxa-8-azabicyclo[3.2.1]octan-8-yl)-N-(6-(5-methyl-1,3,4-thiadiazol-2-yl)isoquinolin-3-yl)acetamide]
value in parentheses after >10 (% inhibition at top concentration) [2]: 9.6%

CC(C)CN1CCC[C@@H](C(=O)Nc2cc3cc(-c4cnn5c4CN(CCF)CC5)ccc3cn2)C1 [Compound 1002, (R)—N-(6-(5-(2-Fluoroethyl)-4,5,6,7-tetrahydropyrazolo[1,5-a]pyrazin-3-yl)isoquinolin-3-yl)-1-isobutylpiperidine-3-carboxamide]
value in parentheses after >10 (% inhibition at top concentration) ([3]; LL29 fibroblasts treated with TGF-β1, where EC50 >10 μM): 27.5%

Cn1cc(-c2ccc3cnc(NC(=O)C45CCN(CC4)CC5)cc3c2)cn1 [Compound 1071, N-(6-(1-Methyl-1H-pyrazol-4-yl)isoquinolin-3-yl)quinuclidine-4-carboxamide]
value in parentheses after >10 (% inhibition at top concentration) [2]: 8.8%

N-(6-(1-Methyl-1H-pyrazol-4-yl)isoquinolin-3-yl)-2-(6-azaspiro[2.5]octan-6-yl)acetamide [Compound 296]
EC50 [4]: 3.48 µM
EC50 [5]: 0.0143 µM
EC50 [6]: 0.08 µM
EC50 [7]: 0.978 µM
EC50 [8]: 3.46 µM
EC50 [3]: 1.96 µM
EC50 [2]: 1.57 µM

N-(6-(1-Methyl-1H-pyrazol-4-yl)isoquinolin-3-yl)-2-(pyrrolidin-1-yl-2,2,5,5-d4)acetamide [Compound 315]
EC50 [4]: 1.59 µM
EC50 [5]: 0.0123 µM
EC50 [6]: 0.044 µM
EC50 [7]: 0.346 µM
EC50 [8]: 1.25 µM
EC50 [3]: 1.82 µM
EC50 [2]: 0.819 µM

From patent US11174244B2, “Isoquinolin-3-yl carboxamides and preparation and use thereof” (BioSplice Therapeutics, Inc., priority 2016, dated 2021)
